Assay results: patent US12622968B2, “Formulation for oral delivery of proteins, peptides and small molecules with poor permeability” (R.P. Scherer Technologies, LLC, priority 2019, dated 2026)
Where “and” joins values, the source holds several entries; their conditions need not be identical. Identical values can stand only once. Like-named read-outs stand apart in the source and are kept apart here.

Assay: Single dose oral capsule pharmacokinetics of BHV-3500 in dogs (plasma LC-MS/MS)
Assay type: in vivo, beagle dogs
Settings: for AUC(0-t): read-out: AUC0-4 hr; for concentration at 0.5 h: 0.5 h post-dose
Protocol: The pharmacokinetics (PK) of BHV-3500 after a single oral capsule of BHV-3500 in dogs were investigated.
After each dose, blood samples (approximately 3 mL from the jugular vein) for determination of plasma levels of BHV-3500 were obtained from of each dog at six time points (pre-dose; 15, 30, and 60 minutes and 2 and 4 hours post-dose. EDTA was used as the anticoagulant. Plasma samples were frozen at approximately −70′C until analyzed.
For the determination of BHV-3500 in plasma, a 50 μL aliquot from each sample was transferred into the appropriate well of a 96-well plate to which 10 μL of 50% acetonitrile (ACN) in water was added, followed by 250 μL of internal standard solution (10 ng/mL BHV-3500-d8 in ACN). After sealing the plate and vortexing for approximately 5 minutes, the plate was centrifuged at 4,000 rpm for 10 minutes at 4±4° C. A portion (100 μL) of the resulting supernatant was transferred to into the appropriate well (containing 300 μL 0.15% formic acid in water) of another 96-well plate. This plate was sealed and its contents mixed prior to instrumental analysis.
Freshly prepared BHV-3500 standard curves and QC samples were analyzed along with the study samples. Instrument calibrators were prepared by adding 10 μL of a stock BHV-3500 solution to 50 μL of blank dog plasma. Blank dog plasma was sourced from BioIVT (Hicksville, NY) and stored frozen at −20° C. Nominal calibrator concentrations ranged from 2.00 to 200 ng/mL. QC samples were prepared at concentrations of 6.00, 50.0 and 150 ng/mL. Calibrators and QC samples were processed for analysis following the extraction procedure described above.
Calibrator, QC and study samples were analyzed under LC-S/MS instrument conditions detailed in Table 7.
Calibration curves were calculated from the linear regression (weighting factor of 1/x2) of the analyte to internal standard peak area ratios versus the analyte concentrations. Concentrations of analyte in the samples were determined using the peak area ratios and the regression parameters of the calibration curves.
Individual animal plasma BHV-3500 concentration data at scheduled (nominal) sampling times were analyzed using the non-compartmental model f r extravascular administration with Phoenix WinNonlin software (Version 8.1; Certara, Princeton, NJ).
Elimination rate constant values (λz) were calculated by log-linear regression on data points of the terminal phase (using Phoenix WinNonlin's Best Fit Lambda Z Calculation Method option) when allowed by the data; the plasma elimination half-life (t1/2) was calculated as ln(2)/λz. Area under the plasma concentration-time curve values from time zero to the concentration at the 4 hour time point (AUC0-4 hr) were calculated by the linear-up/log-down trapezoidal rule.
Nominal dose levels were used for PK analysis. The PK parameters listed below were evaluated (as applicable and when allowed by the data). • Elimination half-life (t1/2) • Time of occurrence of maximum plasma concentration (Tmax) • Maximum plasma concentration (Cmax) • Area under plasma concentration-time curve [0 to the 4 hour time point; AUC0-4hr]

[1] = Group 6, oral capsule, 50 mg BHV-3500 in 25 mg DDM, individual dogs
[2] = female, beagle, dog, plasma, po, 20 mg, Group 3, oral capsule, 20 mg BHV-3500 in 25 mg DDM, average
[3] = female, beagle, dog, plasma, po, 20 mg, Group 3, oral capsule, 20 mg BHV-3500 in 25 mg DDM, individual dogs

For `Cc1cc(C[C@@H](NC(=O)N2CCC(c3cc4ccccc4[nH]c3=O)CC2)C(=O)N2CCN(C3CCN(C)CC3)CC2)cc2cn[nH]c12` [BHV-3500, (R)—N-(3-(7-methyl-1H indazol-5-yl)-1-(4-(1-methylpiperidin-4-yl)piperazin-1-yl)-1-oxopropan-2-yl)-4-(2-oxo-1,2 dihydroquinolin-3-yl)piperidine-1-carboxamide], the “BHV-3500 Concentration in Dog Plasma” value (Group 6, oral capsule, 50 mg BHV-3500 in 25 mg DDM, 2 h post-dose, individual dogs) was “BQL (BQL = below quantitation limit (2.0 ng/mL))”, the “BHV-3500 Concentration in Dog Plasma” value (Group 6, oral capsule, 50 mg BHV-3500 in 25 mg DDM, 4 h post-dose, individual dogs) was “BQL (BQL = below quantitation limit (2.0 ng/mL))” and the AUC0-4 hr [1] was 0.0106 µg·h/mL and 0.024 µg·h/mL. For the same molecule, the Cmax [1] was 5.34 ng/mL and 2.42 ng/mL and 12.0 ng/mL, the Tmax [1] was 1 h and the concentration at 2 h (female, beagle, dog, plasma, oral, 20 mg, Group 2, 20 mg with Vehicle 6, 2 hours post-dose, read-out: mean plasma exposure) was 0.022 µM. The concentration at 2 h (female, beagle, dog, plasma, oral, 20 mg, Group 3, 20 mg with DDM, 2 hours post-dose, read-out: mean plasma exposure) was 0.0295 µM, the concentration at 1 h (female, beagle, dog, plasma, oral, 50 mg, Group 5, 50 mg with Vehicle 6, 1 hour post-dose, read-out: mean plasma exposure) was 0.018 µM and the concentration at 2 h (female, beagle, dog, plasma, oral, 50 mg, Group 5, 50 mg with Vehicle 6, 2 hours post-dose, read-out: mean plasma exposure) was 0.0633 µM. It also gave a concentration at 4 h (female, beagle, dog, plasma, oral, 50 mg, Group 6, 50 mg with DDM, 4 hours post-dose, read-out: mean plasma exposure) of 0.0135 µM, a concentration at 1 h (female, beagle, dog, plasma, po, 20 mg, Group 2, oral capsule, 20 mg BHV-3500 in 900 mg vehicle of Formulation 2 (SEDDS excipients), 1 h post-dose, average, read-out: BHV-3500 Concentration in Dog Plasma) of 2.57 ng/mL and a concentration at 2 h (female, beagle, dog, plasma, po, 20 mg, Group 2, oral capsule, 20 mg BHV-3500 in 900 mg vehicle of Formulation 2 (SEDDS excipients), 2 h post-dose, average, read-out: BHV-3500 Concentration in Dog Plasma) of 14.2 ng/mL. For the same molecule, the concentration at 4 h (female, beagle, dog, plasma, po, 20 mg, Group 2, oral capsule, 20 mg BHV-3500 in 900 mg vehicle of Formulation 2 (SEDDS excipients), 4 h post-dose, average, read-out: BHV-3500 Concentration in Dog Plasma) was 3.09 ng/mL, the AUC(0-t) (female, beagle, dog, plasma, po, 20 mg, Group 2, oral capsule, 20 mg BHV-3500 in 900 mg vehicle of Formulation 2 (SEDDS excipients), average) was 0.0198 µg·h/mL and the Cmax (female, beagle, dog, plasma, po, 20 mg, Group 2, oral capsule, 20 mg BHV-3500 in 900 mg vehicle of Formulation 2 (SEDDS excipients), average, read-out: Cmax) was 14.2 ng/mL. It also gave an AUC(0-t) (female, beagle, dog, plasma, po, 20 mg, Group 2, oral capsule, 20 mg BHV-3500 in 900 mg vehicle of Formulation 2 (SEDDS excipients), individual dogs) of 0.0198 µg·h/mL, a Tmax (female, beagle, dog, plasma, po, 20 mg, Group 2, oral capsule, 20 mg BHV-3500 in 900 mg vehicle of Formulation 2 (SEDDS excipients), individual dogs, read-out: Tmax) of 2 h and a Tmax (female, beagle, dog, plasma, po, 20 mg, Group 2, oral capsule, 20 mg BHV-3500 in 900 mg vehicle of Formulation 2 (SEDDS excipients), median, read-out: Tmax) of 2 h. The concentration at 0.5 h [2] was 14 ng/mL, the concentration at 0.5 h [3] was 14 ng/mL and the concentration at 1 h (female, beagle, dog, plasma, po, 20 mg, Group 3, oral capsule, 20 mg BHV-3500 in 25 mg DDM, 1 h post-dose, average, read-out: BHV-3500 Concentration in Dog Plasma) was 3.56 ng/mL. The concentration at 1 h (female, beagle, dog, plasma, po, 20 mg, Group 3, oral capsule, 20 mg BHV-3500 in 25 mg DDM, 1 h post-dose, individual dogs, read-out: BHV-3500 Concentration in Dog Plasma) was 3.56 ng/mL, the concentration at 2 h (female, beagle, dog, plasma, po, 20 mg, Group 3, oral capsule, 20 mg BHV-3500 in 25 mg DDM, 2 h post-dose, average, read-out: BHV-3500 Concentration in Dog Plasma) was 18.9 ng/mL and the concentration at 4 h (female, beagle, dog, plasma, po, 20 mg, Group 3, oral capsule, 20 mg BHV-3500 in 25 mg DDM, 4 h post-dose, average, read-out: BHV-3500 Concentration in Dog Plasma) was 2.18 ng/mL. The concentration at 4 h (female, beagle, dog, plasma, po, 20 mg, Group 3, oral capsule, 20 mg BHV-3500 in 25 mg DDM, 4 h post-dose, individual dogs, read-out: BHV-3500 Concentration in Dog Plasma) was 2.18 ng/mL, the AUC(0-t) [2] was 0.0481 µg·h/mL and the Cmax (female, beagle, dog, plasma, po, 20 mg, Group 3, oral capsule, 20 mg BHV-3500 in 25 mg DDM, average, read-out: Cmax) was 17.3 ng/mL. The AUC(0-t) [3] was 0.0481 µg·h/mL.
